Test results as given in patent US20140045937A1, “METHODS OF TREATING POLYCYSTIC OVARIAN SYNDROME USING CHLOROGENIC ACID” (Oculus Innovative Sciences, Inc., priority 2012, published 2014).

Columns and labels:
[1] = tested on: PCOS and/or anovulation in female patients; assay: GLUCOREIN beverage (chlorogenic acid and L-cysteine) in anovulatory female patients with PCOS symptoms attempting to become pregnant; assay type: in vivo, human; details: CLOMID added to GLUCOREIN regimen after three months; three patients with body mass index over 35; read after four months of treatment
Experimental: Ten female patients, between the ages of 25 and 37, each anovulatory, were evaluated. […] Chronic anovulation is a common cause of infertility. These patients were also attempting to become pregnant and presented with multiple symptoms of PCOS. Their diets were supplemented with GLUCOREIN medical food beverage (a powdered solid including the components set forth in Table 1 mixed in 8 ounces of water). Per instructions for use, the patients each consumed one eight-ounce serving of the GLUCOREIN beverage each day, typically in the morning hours.
After four months of treatment, with all ten patients continuing with the protocol, the results were as follows: […]

[2] = tested on: PCOS; details: variety of clinical trials, literature; cited from earlier work

Compound	patients who tested positive for ovulation [1]	treatment or prevention of PCOS [2]
CCN(CC)CCOc1ccc(C(=C(Cl)c2ccccc2)c2ccccc2)cc1 [CLOMID, clomiphene]	none	
CC(=O)N[C@@H](CS)C(=O)O [NAC, N-acetyl-L-cysteine]		shown to treat or prevent PCOS
